Source: patent publication US20230355613A1, “METHODS FOR TREATING PANCREATIC DUCTAL ADENOCARCINOMA” (HEALTH RESEARCH, INC., priority 2022, published 2023)

How the values were obtained:
Panc1 cells = assay: RNA-seq of JTE-607 treated cells (APA, read-through, differential expression analysis); assay type: cell-based, human; conditions: Panc1, H3F3A and H2AZ1 normalized counts
Excerpt: mRNA regulation is distinct between knockdown and chemical inhibition of CPSF3. Because JTE-607 inhibits CPSF3 catalytic activity without inducing target degradation, it was sought to understand if the function of CPSF3 is distinct between knockdown and inhibition. As CPSF3 is an integral component of the polyadenylation complex and the histone cleavage complex (HCC), it was hypothesized that CPSF3 disruption would dysregulate both alternative polyadenylation (APA) and histone mRNA processing. To test this hypothesis, CPSF3 knockdown and JTE-607 treated Panc1 cells were subjected to RNA-sequencing (RNA-seq). […] In the CPSF3 knockdown cells, PolyAMiner-Bulk detected 85 significant DAGs, of which 43 genes underwent 3′UTR lengthening (PolyAIndex>0.5; Padj<0.05) and 42 genes underwent 3′UTR shortening (PolyAIndex <−0.5; Padj<0.05) (FIG. 3A). In the CPSF3 inhibition model, PolyAMiner-Bulk detected 174 significant DAGs, of which 138 underwent 3′UTR lengthening (PolyAIndex>0.5; Padj<0.05) and 36 genes underwent 3′UTR shortening (PolyAIndex <−0.5; Padj<0.05) (FIG. 3B). […]
JTE-607 inhibits expression of replication-dependent histones. JTE-607 induces global transcriptional read-through in Ewing's sarcoma cells. Therefore, it was asked whether JTE-607 would similarly induce global read-through in PDAC cells by applying the ARTDeco algorithm. […]

MiaPaCa2 cells = assay: mRNA expression of RD histones (H2B, H3) by qPCR; assay type: cell-based, human
Excerpt: (C) Heatmap of top differentially expressed genes upon JTE-607 treatment. Replication-dependent histones are colored in blue. Expression is plotted as transformed expression value. (D) mRNA expression of H2B and H3 in MiaPaCa2 cells treated with JTE-607. *, P<0.05, **, P<0.01, ***, P<0.001, Ordinary one-way ANOVA with Dunnett's multiple comparisons test. (E) DSeq2 normalized counts of H3F3A and H2AZ1 histone variants (replication-independent) in Panc1 cells treated with JTE-607. […]. (F-H) Volcano plots of Spearman's correlation of CPSF3 and all histone genes (F), replication-dependent histone genes (G) and replication-independent histone genes (H). Each dot represents a histone gene. Blue and red dots denote positive and negative correlation, respectively. (Spearman=−0.15>R>0.15, P<0.05).
As JTE-607 has been previously administered to patients with no cytotoxic effects, we wanted to determine the mechanism underlying the ability of JTE-607 to attenuate PDAC cell proliferation. […] The Spearman's correlation for CPSF3 and 98 histone genes from the CPTAC database (Spearman=−0.15>R>0.15, P<0.05) (FIG. 4F) were calculated. […] A signature by selecting 50 RD histones and assessed PDAC patient survival based on gene expression was generated.
RNA isolation and quantitative PCR. […] Data were analyzed in Microsoft Excel and graphed using GraphPad Prism (v 9.3.0).

SMILES: CCOC(=O)[C@H](Cc1ccccc1)NC(=O)c1cc(Cl)c(OCCN2CCN(C)CC2)c(Cl)c1O [JTE-607]
- expression of RI histones (Panc1 cells): not downregulated
- RD histone mRNA expression (H2B, H3) (MiaPaCa2 cells): decrease
